One assay concerns the target T1, PDZD7 PDZ1 (81-167) (Mus musculus, UniProt E9Q9W7).
T1 construct: (Uniprot entry E9Q9W7-1); PDZ1 (81-167); GST (followed by TEV site) (N, cleaved yes); made in house; host or cells: E. coli BL21 DE3
Kind of assay: NMR titration of PDZ1 with ADGRV1 ligands. It is filed as binding, murine. The following applies: NMR titration (1H-15N HSQC CSP), Tris HCl pH 7.5 (50 mM), 25°C; SD of Kd over at least ten shifting peaks. The protocol:
All experiments were recorded at 25°C on a Bruker 800 MHz spectrometer equipped with a triple resonance ^1H{^13C/^15N} cryoprobe. The ^1H, ^15 N and ^13C backbone resonances assignment of PDZ1ext was carried out using 3D HNCA, HNCACB, HNCO, HNCOCA experiments (Tris HCl buffer adjusted to pH 6). The 2D ^1H-^15N HSQC spectra used to compare PDZ1, PDZ1ext, PDZ2 and PDZ2ext were recorded in Tris HCl pH 7.5 (50 mM). The 2D ^1H-^15N HSQC spectra used to compare PDZ1ext, PDZ2ext and P1P2 were recorded in Phosphate Buffer pH 6.5 (50 mM). Titration experiments of PDZ1 (WT), PDZ1ext (WT) and PDZ1ext (G103R) against ADGRV1pbm peptide were performed in Tris HCl pH 7.5 (50 mM). Averaged Chemical Shifts Perturbations (CSP) were calculated as: Δδavg = ((Δδ(^1H))^2+(Δδ(^15N)*0.159)^2)^½. […]
We monitored the interaction between PDZD7 constructs and a peptide (ADGRV1pbm) corresponding to the last 13 residues of ADGRV1, encompassing its PBM (sequence VELRRIPIADTHL-COOH; PBM underlined). We measured apparent Kd values of our constructs towards ADGRV1pbm using several biophysical methods (NMR, fluorescence, MicroScale Thermophoresis (MST)) (Table 1; Supplementary Figure S3–S5). […]

The target in the next assay is T2, PDZD7 N-PDZ1ext (Mus musculus, UniProt E9Q9W7).
T2 construct: including the N-terminus of the protein (N-PDZ1ext construct; M1-E192); GST (followed by TEV site) (N, cleaved yes); made in house; host or cells: E. coli BL21 DE3
T2 sequence (E9Q9W7 1-192): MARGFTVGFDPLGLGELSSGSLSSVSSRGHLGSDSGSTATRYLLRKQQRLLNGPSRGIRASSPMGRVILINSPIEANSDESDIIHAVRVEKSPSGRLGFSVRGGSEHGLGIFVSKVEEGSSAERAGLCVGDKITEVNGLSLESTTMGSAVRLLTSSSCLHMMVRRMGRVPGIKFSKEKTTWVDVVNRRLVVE
Briefly: NMR titration of N-PDZ1ext with ADGRV1 ligands. Type of assay: binding, murine. The following applies: NMR titration, 25°C; SD over at least ten shifting peaks; read-out: Kd (Peptide). The protocol: All experiments were recorded at 25°C on a Bruker 800 MHz spectrometer equipped with a triple resonance ^1H{^13C/^15N} cryoprobe. The ^1H, ^15 N and ^13C backbone resonances assignment of PDZ1ext was carried out using 3D HNCA, HNCACB, HNCO, HNCOCA experiments (Tris HCl buffer adjusted to pH 6). The 2D ^1H-^15N HSQC spectra used to compare PDZ1, PDZ1ext, PDZ2 and PDZ2ext were recorded in Tris HCl pH 7.5 (50 mM). The 2D ^1H-^15N HSQC spectra used to compare PDZ1ext, PDZ2ext and P1P2 were recorded in Phosphate Buffer pH 6.5 (50 mM). Titration experiments of PDZ1 (WT), PDZ1ext (WT) and PDZ1ext (G103R) against ADGRV1pbm peptide were performed in Tris HCl pH 7.5 (50 mM). Averaged Chemical Shifts Perturbations (CSP) were calculated as: Δδavg = ((Δδ(^1H))^2+(Δδ(^15N)*0.159)^2)^½. For the determination of dissociation constants (Kd) of each peptide/PDZ interaction, averaged CSP δavg was plotted as a function of the molar ratio (peptide/PDZ) for several peaks and fitted using nonlinear regression and assuming a simple complex formation model.
The P1P2 tandem of PDZD7 is preceded by 80 residues with no predicted secondary or tertiary structure, but which could contribute to the interaction with ADGRV1. […] We first aimed at identifying potential secondary structures in both PDZD7 N-terminal region and ADGRV1 cytoplasmic domain. To this end, we produced both an extended PDZ1ext construct, including the N-terminus of the protein (N-PDZ1ext construct; M1-E192) and the whole ADGRV1 cytoplasmic domain of 152 residues.
On the overlay of PDZ1ext and N-PDZ1ext HSQC spectra, there is no significant chemical shift changes on PDZ1ext due to the presence of the N-terminal region (CSPs <0.04 ppm). […] We used the entire cytoplasmic domain of ADGRV1 as partner of PDZD7 in NMR and fluorescence titrations experiments. […] Finally, we measured Kd values in the few micromolar range between the tandem P1P2 and the whole cytoplasmic domain and the last 13 residues of ADGRV1 by fluorescence experiments.

Where no end group is shown, it is not given here.

Consider VELRRIPIADTHL [ADGRV1pbm], for which the Kd turned out to be 1310 µM at PDZD7 PDZ1 (81-167) and 270 ± 21 µM at PDZD7 N-PDZ1ext.
